# Data from article PMC10923852, “Gustavson syndrome is caused by an in-frame deletion in RBMX associated with potentially disturbed SH3 domain interactions” (European Journal of Human Genetics, 2023).
# Where a SMILES comes first, the peptide text is derived from it. Where no end group is shown, it is not given here.
# T1: BIN1-SH3 (Homo sapiens, UniProt O00499)
# T1 construct: GST (cleaved yes); Genecast (peptides); host or cells: E. coli BL21-DE3 GOLD
# T1 sequence (O00499 520-593 limits assumed): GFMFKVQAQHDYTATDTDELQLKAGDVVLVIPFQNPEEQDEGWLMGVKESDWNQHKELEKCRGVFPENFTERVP
# T2: ASAP1-SH3 (Homo sapiens, UniProt Q9ULH1)
# T2 construct: Two SH3 domains were expressed and purified: ASAP1-SH3 (Addgene: 91501), BIN1-SH3 (GenScript); GST (cleaved yes); host or cells: E. coli BL21-DE3 GOLD
# T2 sequence (Q9ULH1 1067-1129 limits assumed): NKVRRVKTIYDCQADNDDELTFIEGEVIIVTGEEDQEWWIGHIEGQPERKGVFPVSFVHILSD
# T3: BIN1 SH3 (Homo sapiens, UniProt O00499)
# T3 chain: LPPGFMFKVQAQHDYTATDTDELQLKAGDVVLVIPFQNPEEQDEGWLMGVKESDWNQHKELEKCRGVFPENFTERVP
# T4: ASAP1 SH3 (Homo sapiens, UniProt Q9ULH1)
# T4 chain: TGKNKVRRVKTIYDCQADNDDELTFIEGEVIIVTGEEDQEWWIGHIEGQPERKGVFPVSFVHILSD
# How the values were obtained:
# [1] = target: T1, BIN1-SH3; test: Fluorescence polarization saturation binding, BIN1-SH3 domain with FITC-labeled hnRNP G peptide; settings: FITC-labeled peptide 10 nM
# Protocol: (§1) To further investigate if the tri-proline region spanning the variant had the capacity to interact with SH3 domains, a fluorescence polarization assay with hnRNP G peptides and SH3 domains were performed. Wildtype and mutant (△P162) hnRNP G peptides of different lengths spanning the region of interest (P38159) were ordered from Genecast (Supplementary material 2) with or without Fluorescein isothiocyanate (FITC)-label (purity >95%, dissolved in 50 mM potassium phosphate pH 7.5). Two SH3 domains were expressed and purified: ASAP1-SH3 (Addgene: 91501), BIN1-SH3 (GenScript) according to standard protocol (Supplementary material 2). […]
# (§2) To determine the affinity between BIN-SH3 domain and the non-labeled hnRNP G peptides, displacement experiments were performed where the fixed concentration of FITC-labeled peptide and protein was mixed with an increasing concentration of displacer non-labeled peptide. […] All results were analyzed with GraphPad Prism to determine the dissociation constant for labeled peptide and the IC50 values, and Microsoft Excel was used to calculate KD from IC50. All fluorescence polarization experiments were performed in 50 mM potassium phosphate pH 7.5, containing 1 mM tris(2-carboxyethyl)phosphine (TCEP). […]
# [2] = target: T2, ASAP1-SH3; test: Fluorescence polarization saturation binding, ASAP1-SH3 domain with FITC-labeled hnRNP G peptide; settings: FITC-labeled peptide 10 nM
# Protocol: as §1, §2
# [3] = target: T1, BIN1-SH3; test: Fluorescence polarization displacement, BIN1-SH3 domain with non-labeled hnRNP G peptides; format: binding; settings: for binding affinity for BIN1-SH3 (in words): fluorescence polarization, 50 mM potassium phosphate pH 7.5, 1 mM TCEP
# Protocol: (§3) To further investigate if the tri-proline region spanning the variant had the capacity to interact with SH3 domains, a fluorescence polarization assay with hnRNP G peptides and SH3 domains were performed. Wildtype and mutant (△P162) hnRNP G peptides of different lengths spanning the region of interest (P38159) were ordered from Genecast (Supplementary material 2) with or without Fluorescein isothiocyanate (FITC)-label (purity >95%, dissolved in 50 mM potassium phosphate pH 7.5). Two SH3 domains were expressed and purified: ASAP1-SH3 (Addgene: 91501), BIN1-SH3 (GenScript) according to standard protocol (Supplementary material 2).
# (§4) To determine the affinity between BIN-SH3 domain and the non-labeled hnRNP G peptides, displacement experiments were performed where the fixed concentration of FITC-labeled peptide and protein was mixed with an increasing concentration of displacer non-labeled peptide. The mP signal was investigated to determine the IC50 values, which were then converted to dissociation constants as previously described. All results were analyzed with GraphPad Prism to determine the dissociation constant for labeled peptide and the IC50 values, and Microsoft Excel was used to calculate KD from IC50. All fluorescence polarization experiments were performed in 50 mM potassium phosphate pH 7.5, containing 1 mM tris(2-carboxyethyl)phosphine (TCEP).
# SH3 domains were expressed by transforming expression constructs into E. coli (BL21-DE3 GOLD) and grown in LB media with 50 µg/ml ampicillin (ASAP1) or 50 µg/ml kanamycin (BIN1) at 37°C until reaching an OD600 of 0.6. Protein expression was induced with 1mM isopropyl-β-thiogalactopyranoside and the protein expression proceeded overnight at 18 °C. Cells were harvested and resuspended in lysis buffer (50 mM Tris/HCl pH 7.8, 10 µg/mL DNase I and RNase A (Hoffman-La Roche, Switzerland), 300 mM NaCl, 4 mM MgCl2, 2 mM CaCl2 and cOmplete EDTA-free Protease Inhibitor Cocktail (Hoffman-La Roche)) and lysed by sonication. Cell lysate was clarified by centrifugation at 20,000 g for 40 min, filtered and transferred to Glutathione Sepharose 4 Fast Flow media (GE Healthcare). After 30-minute incubation, glutathione media was washed with wash buffer (50 mM Tris/HCl pH 7.8 300 mM NaCl, 4 mM DTT), eluted with elution buffer (50 mM Tris/HCl pH 7.8 300 mM NaCl, 4 mM DTT, 10 mM reduced glutathione), and the GST-tag was cleaved overnight with PreScission protease (BIN1) or Thrombin (ASAP1). Next day the cleaved protein was applied to a […] to remove the tag, and pure protein was dialyzed into 50 mM potassium phosphate buffer pH 7.4, and concentrated using the Amicon ultra 15ml centrifugal filters (3kDa cutoff, Merck Millipore, UFC900308). Purity of the sample was analyzed by SDS-PAGE and its identity confirmed by MALDI-TOF mass spectrometry. The sample was then frozen until fluorescence polarization experiments were performed.
# [4] = target: T2, ASAP1-SH3; test: Fluorescence polarization displacement, ASAP1-SH3 domain; format: binding
# Protocol: as §3
# as §4, with “(TCEP). […]” for “(TCEP).”
# [5] = target: T3, BIN1 SH3; test: fluorescence polarization displacement
# [6] = target: T3, BIN1 SH3; test: fluorescence polarization saturation
# [7] = target: T4, ASAP1 SH3; test: fluorescence polarization saturation
molecule,measurement,setting,value
"150-KRGPPPRSGGPPPKRSAPSGPy-170 [hnRNP G aa 150-170, wildtype FITC, FITC-labeled wildtype hnRNP G peptide, residues 150-170]",binding to BIN1-SH3 (in words),[1],binding with moderate affinities
same,binding to ASAP1-SH3 (in words),[2],binding with moderate affinities
"C[C@H](NC(=O)[C@H](CO)NC(=O)[C@H](CCCNC(=N)N)NC(=O)[C@H](CCCCN)NC(=O)[C@@H]1CCCN1C(=O)[C@@H]1CCCN1C(=O)[C@@H]1CCCN1C(=O)CNC(=O)CNC(=O)[C@H](CO)NC(=O)[C@H](CCCNC(=N)N)NC(=O)[C@@H]1CCCN1C(=O)[C@@H]1CCCN1C(=O)CNC(=O)[C@H](CCCNC(=N)N)NC(=O)[C@@H](N)CCCCN)C(=O)N1CCC[C@H]1C(=O)N[C@@H](CO)C(=O)NCC(=O)N1CCC[C@H]1C(=O)N[C@@H](Cc1ccc(O)cc1)C(=O)O [hnRNP G aa 150-170, △P162] (H-KRGPPRSGGPPPKRSAPSGPY-OH; N-terminus and C-terminus assumed)",binding affinity for BIN1-SH3 (in words),[3],no clear difference in binding affinity compared to the wildtype peptide
same,binding affinity for BIN1-SH3 (in words),"[3]; listed as longer hnRNP G peptide, △P162 variant",no clear difference in SH3 binding affinity between the wildtype and the mutant peptide
"C[C@H](NC(=O)[C@H](CO)NC(=O)[C@H](CCCNC(=N)N)NC(=O)[C@H](CCCCN)NC(=O)[C@@H]1CCCN1C(=O)[C@@H]1CCCN1C(=O)[C@@H]1CCCN1C(=O)CNC(=O)CNC(=O)[C@H](CO)NC(=O)[C@@H](N)CCCNC(=N)N)C(=O)N1CCC[C@H]1C(=O)N[C@@H](CO)C(=O)NCC(=O)N[C@@H](Cc1ccc(O)cc1)C(=O)O [hnRNP G aa 156-169, wildtype] (H-RSGGPPPKRSAPSGY-OH; N-terminus and C-terminus assumed)",binding affinity for ASAP1-SH3 (in words),[4],moderate affinities
same,binding affinity for BIN1-SH3 (in words),[3],moderate affinities
same,binding affinity for BIN1-SH3 (in words),[3]; listed as shorter hnRNP G peptide (aa 156–169),weaker but comparable affinity
"C[C@H](NC(=O)[C@H](CO)NC(=O)[C@H](CCCNC(=N)N)NC(=O)[C@H](CCCCN)NC(=O)[C@@H]1CCCN1C(=O)[C@@H]1CCCN1C(=O)CNC(=O)CNC(=O)[C@H](CO)NC(=O)[C@@H](N)CCCNC(=N)N)C(=O)N1CCC[C@H]1C(=O)N[C@@H](CO)C(=O)NCC(=O)N[C@@H](Cc1ccc(O)cc1)C(=O)O [hnRNP G aa 156-169, △P162] (H-RSGGPPKRSAPSGY-OH; N-terminus and C-terminus assumed)",binding affinity for BIN1-SH3 (in words),[3],reduced binding affinity
same,affinity for BIN1-SH3 relative to wildtype peptide (fold),[3]; short peptide aa 156–169 △P162 vs wildtype,threefold weaker affinity
KRGPPPRSGGPPPKRSAPSGP,Kd,[5],40 µM
RSGGPPPKRSAPSG [hnRNP G 156-169],Kd,[5],150 µM
"KRGPPPRSGGPPPKRSAPSGP (also: FITC-labeled, site not given here)",Kd,[6],~400 µM
same,Kd,[7],~400 µM
